From PMC10745768, “Stereoselective Synthesis and Antiproliferative Activity of Steviol-Based Diterpene 1,3-Aminoalcohol Regioisomers” (Molecules, 2023)

Key:
HeLa cells = test: MTT antiproliferative assay, HeLa; format: cell-based; conditions: Homo sapiens, 72 h, read-out: Growth inhibition (%) ± SEM
Protocol: (§1) The in vitro anticancer effects of the presented compounds were assessed using the standard MTT [3-(4,5-dimethylthiazol2-yl)-2,5-diphenyltetrazolium bromide] assay on the following human cancer cell lines: cervical (HeLa and SiHa), breast (MCF-7 and MDA-MB-231) and ovarian cancer (A2780). The selectivity of the tested compounds was determined on murine embryonal fibroblast cells (NIH/3T3). The utilised cell lines were purchased from the European Collection of Cell Cultures (Salisbury, UK). The cells were cultivated in Eagle’s minimal essential medium supplemented with 10% fetal bovine serum, 1% non-essential amino acids and 1% antibiotic-antimycotic complex (penicillin, streptomycin, amphotericin B) at 37 °C in a humidified atmosphere containing 5% CO2. All media and supplements were purchased from Lonza Group Ltd. (Basel, Switzerland). The cancer cells were seeded into 96-well plates (5000 cells/well) and incubated overnight, and the test compounds were applied in two different concentrations (10 µM and 30 µM) and incubated for another 72 h under cell-culturing conditions. […] After 72 h, 20 µL of the 5 mg/mL MTT solution was added to each well, and the plates were incubated for 4 h. The medium was removed, and the formazan crystals produced by the mitochondrial activity were dissolved in dimethyl sulfoxide (DMSO) via shaking at 37 °C for 30 min. The absorbances were measured at 545 nm using a microplate reader (SPECTROStar Nano, BMG Labtech, Offenburg, Germany). The reference agent was cisplatin, which is a widely used cytotoxic agent. The IC50 values were calculated using sigmoid curve fitting. Two independent experiments were performed with five parallel wells for each condition. Calculations were performed using the GraphPad Prism 9 software (GraphPad Software Inc., San Diego, CA, USA).

MDA-MB-231 cells = test: MTT antiproliferative assay, MDA-MB-231; format: cell-based; conditions: Homo sapiens, 72 h, read-out: Growth inhibition (%) ± SEM; for inhibition at 10 µM: MDA-MB-231, 10 μM; for inhibition at 30 µM: MDA-MB-231, 30 μM
Protocol: as §1

MCF-7 cells = test: MTT antiproliferative assay, MCF-7; format: cell-based; conditions: Homo sapiens, MCF7, 72 h, read-out: Growth inhibition (%) ± SEM; for inhibition at 10 µM: MCF-7, 10 μM; for inhibition at 30 µM: MCF-7, 30 μM
Protocol: as §1

A2780 cells = test: MTT antiproliferative assay, A2780; format: cell-based; conditions: Homo sapiens, 72 h, read-out: Growth inhibition (%) ± SEM; for inhibition at 10 µM: A2780, 10 μM; for inhibition at 30 µM: A2780, 30 μM
Protocol: as §1

NIH/3T3 fibroblast cells = test: MTT assay on non-malignant fibroblasts (selectivity); format: cell-based, murine; conditions: Mus musculus, NIH3T3, 72 h, read-out: Growth inhibition (%) ± SEM; for inhibition at 10 µM: NIH/3T3, 10 μM; for inhibition at 30 µM: NIH/3T3, 30 μM
Protocol: as §1

SiHa cells = test: MTT antiproliferative assay, SiHa; format: cell-based; conditions: Homo sapiens, 72 h, read-out: Growth inhibition (%) ± SEM
Protocol: as §1

Row | SMILES | inhibition at 10 µM (HeLa cells) [%] | inhibition at 30 µM (HeLa cells) [%] | inhibition at 10 µM (MDA-MB-231 cells) [%] | inhibition at 30 µM (MDA-MB-231 cells) [%] | inhibition at 10 µM (MCF-7 cells) [%] | inhibition at 30 µM (MCF-7 cells) [%] | inhibition at 10 µM (A2780 cells) [%] | inhibition at 30 µM (A2780 cells) [%] | inhibition at 10 µM (NIH/3T3 fibroblast cells) [%] | inhibition at 30 µM (NIH/3T3 fibroblast cells) [%] | inhibition at 10 µM (SiHa cells) [%] | inhibition at 30 µM (SiHa cells) [%]
1 | COC(=O)[C@]1(C)CCC[C@@]2(C)[C@@H]3CC[C@@]4(CN[C@@H](C)c5cccc6ccccc56)C[C@]3(CC[C@@H]21)C[C@H]4O [Compound 27, (4R,4aS,6aR,8R,9S,11aR,11bS)-Methyl 8-hydroxy-4,11b-dimethyl-9-((((S)-1-(naphthalen-1-yl)ethyl)amino)methyl)tetradecahydro-6a,9-methanocyclohepta[a]naphthalene-4-carboxylate] | < 20 | 96.38 ± 0.83 | 67.2 ± 1.94 | 93.69 ± 0.42 | 79.6 ± 2.89 | 97.63 ± 0.31 | 59 ± 1.68 | 98.92 ± 0.22 | < 20 | 94 ± 1.64 | < 20 | 86.9 ± 2.27
2 | CC[C@@H](NC[C@@]12CC[C@@H]3[C@@](CC[C@H]4[C@@]3(C)CCC[C@@]4(C)C(=O)OC)(C[C@H]1O)C2)c1ccccc1 [Compound 24, (4R,4aS,6aR,8R,9S,11aR,11bS)-Methyl 8-hydroxy-4,11b-dimethyl-9-((((R)-1-phenylpropyl)amino)methyl)tetradecahydro-6a,9-methanocyclohepta[a]naphthalene-4-carboxylate] | < 20 | 96.56 ± 0.88 | < 20 | 97.6 ± 1.01 | 34.8 ± 1.99 | 93.6 ± 0.94 | < 20 | 99.28 ± 0.52 | 21.8 ± 2.15 | 97.69 ± 0.87 | < 20 | 78.1 ± 1.56
3 | COC(=O)[C@]1(C)CCC[C@@]2(C)[C@@H]3CC[C@@]4(CO)C[C@]3(CC[C@@H]21)C[C@H]4NCc1ccccc1 [Compound 8, (4R,4aS,6aR,8R,9R,11aR,11bS)-Methyl 8-(benzylamino)-9-(hydroxymethyl)-4,11b-dimethyltetradecahydro-6a,9-methanocyclohepta[a]naphthalene-4-carboxylate] | < 20 | 97.49 ± 0.52 | < 20 | 97.89 ± 0.66 | 45.4 ± 1.94 | 98.9 ± 0.18 | 20.3 ± 2.05 | 98.25 ± 0.4 | 25.7 ± 0.97 | 98.27 ± 0.37 | < 20 | 95.3 ± 1.23
4 | COC(=O)[C@]1(C)CCC[C@@]2(C)[C@@H]3CC[C@@]4(CNCc5cccc6ccccc56)C[C@]3(CC[C@@H]21)C[C@H]4O [Compound 26, (4R,4aS,6aR,8R,9S,11aR,11bS)-Methyl 8-hydroxy-4,11b-dimethyl-9-(((naphthalen-1-ylmethyl)amino)methyl)tetradecahydro-6a,9-methanocyclohepta[a]naphthalene-4-carboxylate] | 49.5 ± 1.23 | 93.6 ± 1.56 | 87.61 ± 0.59 | 93.1 ± 1.53 | 90.7 ± 1.57 | 97.49 ± 0.53 | 61.4 ± 1.45 | 98.21 ± 0.43 | 25.7 ± 1.93 | 95.6 ± 0.96 | 63.4 ± 0.91 | 86.9 ± 1.69
5 | CC[C@H](NC[C@@]12CC[C@@H]3[C@@](CC[C@H]4[C@@]3(C)CCC[C@@]4(C)C(=O)OC)(C[C@H]1O)C2)c1ccccc1 [Compound 25, (4R,4aS,6aR,8R,9S,11aR,11bS)-Methyl 8-hydroxy-4,11b-dimethyl-9-((((S)-1-phenylpropyl)amino)methyl)tetradecahydro-6a,9-methanocyclohepta[a]naphthalene-4-carboxylate] | < 20 | 32.2 ± 2.88 | < 20 | 69.3 ± 1.96 | 40.1 ± 1.44 | 78.8 ± 1.52 | < 20 | 73.83 ± 0.57 | < 20 | 93.7 ± 1.11 | < 20 | < 20
6 | COC(=O)[C@]1(C)CCC[C@@]2(C)[C@@H]3CC[C@@]4(CN[C@H](C)c5cccc6ccccc56)C[C@]3(CC[C@@H]21)C[C@H]4O [Compound 28, (4R,4aS,6aR,8R,9S,11aR,11bS)-Methyl 8-hydroxy-4,11b-dimethyl-9-((((R)-1-(naphthalen-1-yl)ethyl)amino)methyl)tetradecahydro-6a,9-methanocyclohepta[a]naphthalene-4-carboxylate] | 46.8 ± 1.44 | 94.66 ± 0.63 | 88 ± 0.54 | 92.9 ± 1.04 | 90.63 ± 0.54 | 97.75 ± 0.39 | 60.1 ± 2.24 | 98.53 ± 0.42 | < 20 | 94 ± 1.95 | 63.4 ± 2.66 | 86.1 ± 3.79
7 | COC(=O)[C@]1(C)CCC[C@@]2(C)[C@@H]3CC[C@@]4(CO)C[C@]3(CC[C@@H]21)C[C@H]4NCc1ccc(OC)cc1 [Compound 10, (4R,4aS,6aR,8R,9R,11aR,11bS)-Methyl 9-(hydroxymethyl)-8-((4-methoxybenzyl)amino)-4,11b-dimethyltetradecahydro-6a,9-methanocyclohepta[a]naphthalene-4-carboxylate] | – | 97.65 ± 0.64 | 78.7 ± 2.63 | 98.09 ± 0.59 | 86.5 ± 0.88 | 100 ± 0.2 | 39 ± 1.87 | 98.38 ± 0.51 | 20.3 ± 2.93 | 96.6 ± 1.1 | < 20 | 97.61 ± 0.9
8 | COC(=O)[C@]1(C)CCC[C@@]2(C)[C@@H]3CC[C@@]4(CO)C[C@]3(CC[C@@H]21)C[C@H]4NCc1cccc2ccccc12 [Compound 15, (4R,4aS,6aR,8R,9R,11aR,11bS)-Methyl 9-(hydroxymethyl)-4,11b-dimethyl-8-((naphthalen-1-ylmethyl)amino)tetradecahydro-6a,9-methanocyclohepta[a]naphthalene-4-carboxylate] | < 20 | 94.9 ± 2.04 | 31.3 ± 1.89 | 94.2 ± 0.98 | 54 ± 3.39 | 97.43 ± 0.59 | 89.5 ± 1.76 | 99.67 ± 0.49 | < 20 | 96.5 ± 0.77 | < 20 | 87.9 ± 1.33
9 | COC(=O)[C@]1(C)CCC[C@@]2(C)[C@@H]3CC[C@@]4(CN[C@H](C)c5ccc6ccccc6c5)C[C@]3(CC[C@@H]21)C[C@H]4O [Compound 29, (4R,4aS,6aR,8R,9S,11aR,11bS)-Methyl 8-hydroxy-4,11b-dimethyl-9-((((R)-1-(naphthalen-2-yl)ethyl)amino)methyl)tetradecahydro-6a,9-methanocyclohepta[a]naphthalene-4-carboxylate] | < 20 | 92.17 ± 0.38 | < 20 | 95.3 ± 0.97 | 32.5 ± 0.92 | 93.08 ± 0.3 | 21.9 ± 0.73 | 75 ± 1.79 | < 20 | 32 ± 1.3 | < 20 | 79.5 ± 2.33
10 | COC(=O)[C@]1(C)CCC[C@@]2(C)[C@@H]3CC[C@@]4(CO)C[C@]3(CC[C@@H]21)C[C@H]4NCc1ccc(F)cc1 [Compound 9, (4R,4aS,6aR,8R,9R,11aR,11bS)-Methyl 8-((4-fluorobenzyl)amino)-9-(hydroxymethyl)-4,11b-dimethyltetradecahydro-6a,9-methanocyclohepta[a]naphthalene-4-carboxylate] | < 20 | 95.35 ± 0.58 | 58 ± 2.59 | 93.42 ± 0.39 | 79.8 ± 1.59 | 98.07 ± 0.35 | 73.6 ± 2.61 | 99.01 ± 0.11 | < 20 | 93.9 ± 1.94 | < 20 | 86 ± 2.92
